The values that follow come from patent publication US9000027B2, “Chk1 suppresses a caspase-2 apoptotic response to DNA damage that bypasses p53, bcl-2 and caspase-3” (Dana-Farber Cancer Institute, Inc., priority 2008, dated 2015).

The data set has as its system p53^e7/e7 mutant embryos. The experiment in a line: Morpholino screen for suppressors of p53^e7/e7 radioresistance (live AO assay). In kind it is in vivo, zebrafish. The conditions noted are these: p53^e7/e7, 12.5 Gy at 18 hpf, 7.5 hpIR. Here is the method:
We used morpholino antisense oligonucleotides (MOs) to knock down the expression levels of 8 zebrafish S- and G2-checkpoint kinases in p53^e7/e7 mutant embryos and assessed the ability of each knockdown to restore cell death (AO reactivity) at 7.5 hours post-IR (hpIR). We also tested several double-knockdown combinations, as well as knockdowns of non-kinase checkpoint regulators (p21^waf1/cip1 and smc1). For each knockdown, we scored a minimum of 50 embryos and quantified AO staining in at least 5 embryos. To avoid the isolation of false-positives, we adjusted the concentrations of each MO to the maximal dose compatible with normal embryonic development in the p53^e7/e7 background.
Morpholino oligonucleotides (MOs) synthesized by Gene Tools™ LLC, were resuspended in sterile water at a concentration of 1 mM and delivered into zebrafish embryos at the one-cell stage by microinjection. […] For each previously unpublished MO, the working concentration was determined as the highest dose compatible with normal zebrafish development in the p53^e7/e7 background (maximal subtoxic concentration). […]
Live zebrafish embryos were dechorionated in pronase (2.0 mg/mL in egg water) for 3 to 5 min and rinsed five times in egg water at 18 hpf. […] Lateral images of each zebrafish were acquired on a Zeiss Axioplan2 fluorescence microscope (5× lens), using OpenLab software and a Hammamatsu C4742-95 digital camera. […]

For the substance “chk1 MO: morpholino against zebrafish chk1 atg/5'UTR, aggcacagccattatgcaatcttcg (SEQ ID NO: 11) (AGGCACAGCCATTATGCAATCTTCG; all phosphorodiamidate morpholino (PMO))”, the “AO reactivity restored, of the p53+/+ response” value was 87.7%.
